The nature of data set [1]: Peptide stability in simulated intestinal fluid (SIF). The note with it: 37 °C, porcine pancreatin. The format is in vitro ADME. Here is the method:
(§1) SGF was prepared by dissolving sodium chloride (0.2 g) in 50 mL of water. A volume of 0.7 mL of 10 M HCl was added to adjust the pH of the solution to 1.2 and the volume made up to 100 mL with water. […] SIF was prepared by dissolving monobasic potassium phosphate (0.68 g) in 50 mL of water and adjusting the pH to 6.8 with 1 M NaOH. The volume was subsequently made up to 100 mL with water. 200 mg porcine pancreatin (P1625, Sigma Aldrich) was gently dissolved into 20 mL preheated (37 °C) solution (10 g/L) immediately prior to the incubation.
(§2) The incubation was performed at 37 °C with gentle shaking. […] After the last timepoint, the sampling plate was mixed for 10 min on a shaking table and centrifuged 10 min at 2200 g. 70 µL resulting supernatant was diluted with 150 µL water, mixed and centrifugated before analysis by liquid chromatography high resolution mass spectrometry. […] Percent remaining at each timepoint was calculated relative to timepoint zero based on absolute peak areas.
Compounds with a SIF stability (after 4 h) above 70% are considered highly SIF stable.

The target in another data set is T1, human IL-23R (Homo sapiens, UniProt Q5VWK5).
T1 sequence (Q5VWK5 22-629): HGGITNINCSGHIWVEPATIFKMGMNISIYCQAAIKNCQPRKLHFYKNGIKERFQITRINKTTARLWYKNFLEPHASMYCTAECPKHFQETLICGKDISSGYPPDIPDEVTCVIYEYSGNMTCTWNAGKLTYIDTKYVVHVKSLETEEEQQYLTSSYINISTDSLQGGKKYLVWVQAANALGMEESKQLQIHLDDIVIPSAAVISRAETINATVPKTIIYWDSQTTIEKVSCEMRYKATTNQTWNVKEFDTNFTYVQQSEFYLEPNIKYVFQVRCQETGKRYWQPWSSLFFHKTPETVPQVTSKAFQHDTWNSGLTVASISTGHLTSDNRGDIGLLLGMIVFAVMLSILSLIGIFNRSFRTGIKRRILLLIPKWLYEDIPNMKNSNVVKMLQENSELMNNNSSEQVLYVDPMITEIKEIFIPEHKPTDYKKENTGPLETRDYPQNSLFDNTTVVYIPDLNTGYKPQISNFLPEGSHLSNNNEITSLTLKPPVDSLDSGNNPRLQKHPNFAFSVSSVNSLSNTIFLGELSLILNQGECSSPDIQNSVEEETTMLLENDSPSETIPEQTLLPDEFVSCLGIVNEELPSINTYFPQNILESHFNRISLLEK
The experiment in a line: biochemical. The note with it: for Emax: read-out: % displacement (hIL-23R NIuc). The method, boiled down: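 Membranes from HEK293 cells stably expressing Nluc-tagged human IL-23R were incubated 2 h at room temperature with test compound and a fluorophore-labelled tracer. After substrate addition, loss of BRET (TAMRA over luciferase emission) reported tracer displacement. A 4PL fit gave IC50 values.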

Data set [2] is described as follows: Peptide stability in simulated gastric fluid (SGF). Type of data set: in vitro ADME. The conditions noted are these: 37 °C, porcine pepsin. The method, then:
as §1, §2
Compounds with a SGF stability (after 4 h) above 70% are considered highly SGF stable. […] Table 3-4: SGF data

*1 amine or outer side, *2 acyl side, *3 side chain or, on linkers, in order; H or OH if unused. Where a SMILES comes first, the peptide text is derived from it. Bridges are numbered along the chain shown (N, C = ends). [ ]: non-standard residue; d: D form. The star is where a group is joined. NH(4-(3-pyridyl)butyl) = c1cncc(CCCCN*)c1; X8 = O=C(CC[C@@H](N[*:2])C(=O)[*:3])[*:1]; 2Nal = N[C@@H](Cc1ccc2ccccc2c1)C(=O)O; AEF = NCCOc1ccc(C[C@H](N)C(=O)O)cc1; 3Pal = N[C@@H](Cc1cccnc1)C(=O)O; αMeL = CC(C)C[C@](C)(N)C(=O)O; Dab = NCC[C@H](N)C(=O)O

With `COc1ccc(C[C@@H]2NC(=O)[C@@H]3CCC(=O)N[C@@H](CCCCNC(=O)CC[C@@H](C(=O)N[C@@H](CCCCNC(=O)c4cccnc4)C(N)=O)NC(=O)[C@](C)(CC(C)C)NC(=O)[C@H](Cc4ccc5ccccc5c4)NC2=O)C(=O)N[C@@H]([C@@H](C)O)C(=O)N[C@@H](C(C)C)C(=O)N[C@@H](Cc2c[nH]c4ccccc24)C(=O)N[C@@H](CCC(N)=O)C(=O)N3)cc1` [Compound 50, K(1c)(6c)^†TVWQE(6c)[Y(Me)][2-Nal][2-Me-Leu]E(1c)[K(nicotinate)]-[NH2]], the share remaining at 1 h, 10 µM in data set [1] (pig, pH 6.8, 1 h) is 95%; in data set [2] (pig, simulated gastric fluid (SGF) with porcine pepsin (3.2 g/L), pH 1.2, 10 µM, pH 1.2, 1 h, read-out: SGF (% remaining 1 h)) it was 78%. Moreover, the fraction remaining at 4 h, 10 µM in data set [1] (pig, pH 6.8, 4 h, read-out: SIF (% remaining 4 h)) was 81%; in data set [2] (pig, simulated gastric fluid (SGF) with porcine pepsin (3.2 g/L), pH 1.2, 10 µM, pH 1.2, 4 h, read-out: SGF (% remaining 4 h)), 8%. Moreover, the “% displacement (hIL-23R NIuc)” value at human IL-23R worked out at 98%. Further, the concentration for half-maximal inhibition (IC50) against human IL-23R was determined as 320 nM.

In the case of `CC(C)C[C@@H]1NC(=O)[C@H](Cc2c[nH]c3ccccc23)NC(=O)[C@H](Cc2c[nH]c3ccccc23)NC(=O)[C@@H]2CSCC(=O)CSC[C@H](NC(=O)[C@H](CO)NC(=O)[C@@H](NC(=O)[C@@H](N)CC(=O)O)CSCC(=O)CSC[C@@H](C(=O)N[C@@H](CCCNC(=N)N)C(N)=O)NC1=O)C(=O)N[C@@H](Cc1c[nH]c3ccccc13)C(=O)N[C@@H](CCC(N)=O)C(=O)N2` (single isomer, unassigned) [I3 (isomer 3), H-DC(1a)SC(2a)WQC(2a)WWLC(1a)R-[NH2], reference compound], the “SIF (% remaining 1 h)” value in data set [1] (10 µM, pH 6.8, 1 h) is recorded as 0%. Moreover, the “SIF (% remaining 4 h)” value in data set [1] (10 µM, pH 6.8, 4 h) is 0%. Besides, in data set [2] (10 µM, pH 1.2, 1 h), the “SGF (% remaining 1 h)” value is reported as 5%. In addition, in data set [2] (10 µM, pH 1.2, 4 h), the “SGF (% remaining 4 h)” value is on record as 0%.

Turning to `COc1ccc(C[C@@H]2NC(=O)[C@@H]3CCC(=O)N[C@@H](CCCCNC(=O)CC[C@@H](C(=O)N[C@@H](CCCCNC(=O)CCc4cccnc4)C(N)=O)NC(=O)[C@](C)(CC(C)C)NC(=O)[C@H](Cc4ccc5ccccc5c4)NC2=O)C(=O)N[C@@H]([C@@H](C)O)C(=O)N[C@@H](C(C)C)C(=O)N[C@@H](Cc2c[nH]c4ccccc24)C(=O)N[C@@H](CCC(N)=O)C(=O)N3)cc1` [Compound 52, K(1c)(6c)^†TVWQE(6c)[Y(Me)][2-Nal][2-Me-Leu]E(1c)[K(3-pyridylpropionyl)]-[NH2]], on human IL-23R, the IC50 turned out to be 120 nM and the Emax was 101%.

For `CC(C)[C@@H]1NC(=O)[C@H](CO)NC(=O)[C@@H]2CCCCNC(=O)CC[C@@H](C(=O)NCCCCc3cccnc3)NC(=O)CNC(=O)[C@H](Cc3ccc4ccccc4c3)NC(=O)[C@H](Cc3ccc(OCCN)cc3)NC(=O)[C@H](CCC(=O)N2)NC(=O)[C@H](CCC(N)=O)NC(=O)[C@H](Cc2c[nH]c3ccccc23)NC1=O` [Compound 31, K(1c)(6c)^†SVWQE(6c)[Y(2-aminoethoxy)][2-Nal]GE(1c)-[NH-4-(pyridin-3-yl)butanyl]] (KSVWQE[AEF][2Nal]GE-{NH(4-(3-pyridyl)butyl)}; lactam 1-10, N-6), the “% displacement (hIL-23R NIuc)” value at human IL-23R was 98%.

For `CC[C@H](C)[C@@H]1NC(=O)[C@@H]2CCCCNC(=O)CC[C@@H](C(=O)N[C@@H](CCN)C(=O)N[C@@H](Cc3cccnc3)C(=O)NC)NC(=O)[C@](C)(CC(C)C)NC(=O)[C@H](Cc3ccc4ccccc4c3)NC(=O)[C@H](Cc3ccc(OCc4ccccc4)cc3)NC(=O)[C@H](CCC(=O)N2)NC(=O)[C@H](CCC(N)=O)NC(=O)[C@H](Cc2c[nH]c3ccccc23)NC(=O)[C@H](C(C)C)NC1=O` [Compound 34, K(1c)(6c)^†IVWQE(6c)[Y(Bn)][2-Nal][2-Me-Leu]E(1c)[Dab][3-(3-Pyridyl)-Ala]-[NHMe]], on human IL-23R, it took 0.62 nM to reach half-maximal inhibition (IC50) and the Emax was found to be 100%.

On to `CNC(=O)[C@H](Cc1cccnc1)NC(=O)[C@H](CCN)NC(=O)[C@@H]1CCNC(=O)[C@H]2CCC(=O)N[C@@H](Cc3c[nH]c4ccccc34)C(=O)N[C@@H](CCC(N)=O)C(=O)N[C@@H](CCC(=O)N2)C(=O)N[C@@H](Cc2ccc(OCCN)cc2)C(=O)N[C@@H](Cc2ccc3ccccc3c2)C(=O)N[C@@](C)(CC(C)C)C(=O)N1` [Compound 109, [{d}iso-Glu](1c)^‡(6c)^†WQE(6c)[Y(2-aminoethoxy)][2-Nal][2-Me-Leu][Dab](1c)[Dab][3-(3-Pyridyl)-Ala]-[NHMe]] (WQE[AEF][2Nal][αMeL][Dab][Dab][3Pal]-NHMe; linker N-3-7 via X8), for which, at human IL-23R, the IC50 worked out at 26 nM and the Emax came to 96%.

As for `COc1ccc(C[C@@H]2NC(=O)[C@@H]3CCC(=O)N[C@@H](CCCCNC(=O)CC[C@@H](C(=O)N[C@@H](CCCCNC(=O)Cc4cccnc4)C(N)=O)NC(=O)[C@](C)(CC(C)C)NC(=O)[C@H](Cc4ccc5ccccc5c4)NC2=O)C(=O)N[C@@H]([C@@H](C)O)C(=O)N[C@@H](C(C)C)C(=O)N[C@@H](Cc2c[nH]c4ccccc24)C(=O)N[C@@H](CCC(N)=O)C(=O)N3)cc1` [Compound 51, K(1c)(6c)^†TVWQE(6c)[Y(Me)][2-Nal][2-Me-Leu]E(1c)[K(3-pyridylacetyl)]-[NH2]], on human IL-23R, 300 nM corresponded to half-maximal inhibition (IC50) and the Emax worked out at 102%.

As for `CCCOc1ccc(C[C@@H]2NC(=O)[C@@H]3CCC(=O)N[C@@H](CCCCNC(=O)CC[C@@H](C(=O)NCCCCc4cccnc4)NC(=O)[C@](C)(CC(C)C)NC(=O)[C@H](Cc4ccc5ccccc5c4)NC2=O)C(=O)N[C@@H]([C@@H](C)CC)C(=O)N[C@@H](C(C)C)C(=O)N[C@@H](Cc2c[nH]c4ccccc24)C(=O)N[C@@H](CCC(N)=O)C(=O)N3)cc1` [Compound 32, K(1c)(6c)^†IVWQE(6c)[Y(nPr)][2-Nal][2-Me-Leu]E(1c)-[NH-4-(pyridin-3-yl)butanyl]], on human IL-23R, the half-inhibitory concentration (IC50) came out at 320 nM and the Emax stood at 99%.

For `CC(C)[C@@H]1NC(=O)[C@H]([C@@H](C)O)NC(=O)[C@@H]2CCCCNC(=O)CC[C@@H]3NC(=O)[C@H](CCCCNC(=O)[C@H](Cc4cccnc4)NC(=O)[C@H](CCN)NC3=O)NC(=O)[C@H](Cc3ccc4ccccc4c3)NC(=O)[C@H](Cc3ccc(OCCN)cc3)NC(=O)[C@H](CCC(=O)N2)NC(=O)[C@H](CCC(N)=O)NC(=O)[C@H](Cc2c[nH]c3ccccc23)NC1=O` [Compound 77, K(1c)(6c)^†TVWQE(6c)[Y(2-aminoethoxy)][2-Nal]K(7c)E(1c)[Dab][3-(3-Pyridyl)-Ala](7c)^‡], on human IL-23R, the IC50 stood at 9.9 nM and the Emax is 97%.

On to `COc1ccc(C[C@@H]2NC(=O)[C@@H]3CCC(=O)N[C@@H](CCCCNC(=O)CC[C@@H](C(=O)N[C@@H](CCCCNC(=O)Cc4ccccn4)C(N)=O)NC(=O)[C@](C)(CC(C)C)NC(=O)[C@H](Cc4ccc5ccccc5c4)NC2=O)C(=O)N[C@@H]([C@@H](C)O)C(=O)N[C@@H](C(C)C)C(=O)N[C@@H](Cc2c[nH]c4ccccc24)C(=O)N[C@@H](CCC(N)=O)C(=O)N3)cc1` [Compound 48, K(1c)(6c)^†TVWQE(6c)[Y(Me)][2-Nal][2-Me-Leu]E(1c)[K(2-pyridylacetyl)]-[NH2]], for which, on human IL-23R, it took 290 nM to reach half-maximal inhibition (IC50) and the Emax worked out at 101%.

Consider `CNC(=O)[C@H](Cc1cccnc1)NC(=O)[C@H](CCN)NC(=O)[C@@H]1CCC(=O)NCCCC[C@H]2CC(=O)N[C@@H](Cc3c[nH]c4ccccc34)C(=O)N[C@@H](CCC(N)=O)C(=O)N[C@@H](CCC(=O)N2)C(=O)N[C@@H](Cc2ccc(OCCN)cc2)C(=O)N[C@@H](Cc2ccc3ccccc3c2)C(=O)N[C@@](C)(CC(C)C)C(=O)N1` [Compound 101, [beta-hLys](1c)(6c)^†WQE(6c)[Y(2-aminoethoxy)][2-Nal][2-Me-Leu]E(1c)[Dab][3-(3-Pyridyl)-Ala]-[NHMe]], for which, on human IL-23R, inhibition was half-maximal at 30 nM (IC50) and the Emax was 103%.

Source of the values: patent EP4471048A1, “PEPTIDE INHIBITORS OF INTERLEUKIN-23 RECEPTOR” (Zealand Pharma A/S, priority 2023, dated 2024).
